Data on 51 compounds can be found in the OPERA property sets (Mansouri et al. 2018).

Settings in the first data set: not given
As usually defined, the boiling point is the temperature at which the vapour pressure of the liquid equals the pressure above it. The term melting point denotes the temperature, or range, at which the solid turns liquid. In turn, `O=[N+]([O-])c1ccc(O)cc1` yielded a boiling point of 279 °C, a log10 Henry constant (atm·m³/mol) of -9.38, a log10 Koc (L/kg) of 2.37 and a log10 vapour pressure (mmHg) of -4.01. Besides, the melting point was found to be 114 °C and the ready biodegradability result is “not readily biodegradable”. On to `C[C@]12CC[C@H](O)CC1=CC[C@@H]1[C@@H]2CC[C@]2(C)C(=O)CC[C@@H]12`, for which the melting point stood at 140 °C. Take `Cc1ccc(N)cc1N`: the boiling point was 292 °C, the log10 vapour pressure (mmHg) was -3.77, the melting point came to 99 °C and the ready biodegradability result is recorded as “not readily biodegradable”. `COc1cc(C=CC=O)ccc1O`: the melting point was 84 °C. The compound `O=C1CCC[C@@H]2[C@H]3CCCN4CCC[C@@H](CN12)[C@@H]34` (racemic) came in with a melting point of 76 °C.

Regarding `N#CSCSc1nc2ccccc2s1`, the ready biodegradability result is recorded as “not readily biodegradable”.

Take `NCCCN`: the boiling point is 140 °C. For the compound `CCOB(OCC)OCC`, the boiling point came out at 120 °C, the log10 vapour pressure (mmHg) was 1.22 and the melting point is -84.8 °C. On to `C#CCO`, for which the boiling point was determined as 114 °C, the log10 vapour pressure (mmHg) amounted to 1.19, the melting point was -51.8 °C and the ready biodegradability result is “readily biodegradable”. As to `Cc1cc(C)c([N+](=O)[O-])c(C)c1`, the boiling point stood at 255 °C and the melting point turned out to be 44 °C. `COC(=O)c1ccc(Cl)cc1[N+](=O)[O-]` registered a melting point of 44 °C. On to `CCCCC1CO1` (stereo not given), for which the melting point stood at 94 °C.

With `CC1(C)[C@H](/C=C2\CCSC2=O)[C@@H]1C(=O)OCc1coc(Cc2ccccc2)c1`, the melting point was 31 °C.

`O=[N+]([O-])c1cccc2ccccc12` had a boiling point of 304 °C, a log10 Henry constant (atm·m³/mol) of -5.75, a log10 vapour pressure (mmHg) of -3.32 and a melting point of 61 °C. `Cc1ccc2oc(C)nc2c1` registered a boiling point of 218 °C. `O=[N+]([O-])C(Br)(Br)Br` had a melting point of 10 °C. For `CCCCCN1C(=O)c2ccc([N+](=O)[O-])cc2C1=O`, the ready biodegradability result was “readily biodegradable”.

In the case of `COc1cc2c(cc1OC)[C@@]13CCN4CC5=CCO[C@H]6CC(=O)N2[C@H]1[C@H]6[C@H]5C[C@H]43`, the melting point is 178 °C.

The compound `CC(C)(CCC(=O)O)C(=O)O` yielded a melting point of 84 °C. Same read-out and setting: then `Brc1c2ccccc2c(Br)c2ccccc12`, with 226 °C. `Clc1ccc(-c2ccc(Cl)c(Cl)c2)c(Cl)c1` registered a log10 Henry constant (atm·m³/mol) of -3.92, a log10 Koa of 9.02 and a log10 vapour pressure (mmHg) of -4.33. In turn, `Cc1cccc(C)c1N(C(=O)CCl)C1CCOC1=O` (stereo not given) displayed a log10 vapour pressure (mmHg) of -6.82 and a melting point of 146 °C. Compound `CCCCCCCC/C=C\CCCCCCCCCCCCC` came in with a boiling point of 378 °C and a log10 vapour pressure (mmHg) of -4.45.

For the compound `CC/C=C\C(C)(C)C`, the melting point is -137 °C. As to `NC(=O)c1ccccc1Cl`, the log10 Koc (L/kg) amounted to 1.51 and the melting point stood at 143 °C. `CCCCCCCCCCCCCCCCc1ccccc1` displayed a boiling point of 385 °C, a log10 vapour pressure (mmHg) of -5.45 and a melting point of 27 °C. For the compound `Cc1cnccn1`, the boiling point is 137 °C, the log10 Henry constant (atm·m³/mol) was -5.66, the log10 vapour pressure (mmHg) stood at 0.906 and the melting point is -29 °C. On to `CC(=O)Oc1cccc2cc3cccc(OC(C)=O)c3c(OC(C)=O)c12`, for which the ready biodegradability result is listed as “not readily biodegradable”. For `O=c1oc2ccccc2c(O)c1C(CC(O)c1ccc(Cl)cc1)c1ccc(Cl)s1` (stereo not given), the melting point worked out at 104 °C. In turn, `C[Si](C)(C)Cc1ccccc1` registered a boiling point of 190 °C.

Regarding `N#Cc1c[nH]cc1-c1cccc(Cl)c1Cl`, the log10 vapour pressure (mmHg) was -7.08 and the melting point amounted to 147 °C. The compound `C[Si]1(C)O[Si](C)(C)O[Si](C)(C)O[Si](C)(C)O[Si](C)(C)O[Si](C)(C)O1` returned a boiling point of 245 °C, a log10 vapour pressure (mmHg) of -1.65 and a melting point of -3 °C. `O=[N+]([O-])c1c(Cl)cc(Cl)cc1Cl`: the melting point was 72 °C and the ready biodegradability result was “not readily biodegradable”. For the compound `O=C(OCc1ccccc1)c1ccccc1`, the boiling point worked out at 324 °C, the log10 vapour pressure (mmHg) is -3.65, the melting point was determined as 21 °C and the ready biodegradability result is recorded as “readily biodegradable”.

`Cc1ccc(N)cc1Br` yielded a boiling point of 256 °C and a melting point of 26 °C.

`CNCCN(C)C` came in with a boiling point of 117 °C. In turn, `Cc1cc(O)c(C(C)(C)C)cc1C(C)CC(c1cc(C(C)(C)C)c(O)cc1C)c1cc(C(C)(C)C)c(O)cc1C` (stereo not given) returned a melting point of 186 °C. The compound `CC1=NNC(=O)C1` had a melting point of 221 °C. For the compound `CCCCCCCCOC(=O)c1ccccc1C(=O)OCCCCCCCC`, the log10 Koc (L/kg) is 4.38, the log10 vapour pressure (mmHg) was -7 and the ready biodegradability result was “readily biodegradable”. `O=[N+]([O-])c1ccccc1SSc1ccccc1[N+](=O)[O-]` gave a melting point of 196 °C. In the case of `ClC=CCc1ccccc1`, the boiling point came to 211 °C.

On to `O=C(O)c1c(F)cc(F)cc1F`, for which the melting point amounted to 143 °C. The compound `Cc1ccc(C(C)C)cc2c(C)ccc1-2` had a melting point of 31.5 °C. `CC(C)(C)OO`: the log10 vapour pressure (mmHg) turned out to be 0.738, the melting point was -8 °C and the ready biodegradability entry is on record as “not readily biodegradable”.

Still in this data set, the particulars now being: fish.
With `CCc1c(Br)c(Br)c(Br)c(Br)c1Br`, the log10 BCF is 2.52 and the log10 biotransformation half-life (days) was found to be 0.02. On to `Clc1cc(Cl)c(Cl)c(-c2ccccc2Cl)c1`, for which the log10 biotransformation half-life (days) was determined as 2.8. As to `CC(C)(C)C(=O)O`, the log10 BCF turned out to be 0.36. Compound `O=[N+]([O-])c1ccc(Cl)c(Cl)c1` registered a log10 BCF of 1.71 and a log10 biotransformation half-life (days) of -0.27. As to `CC(O)CN(CC(C)O)CC(C)O` (stereo not given), the log10 BCF was -0.24. Regarding `Cc1ccc2cc3ccccc3cc2c1`, the log10 biotransformation half-life (days) was -0.02. On to `O=[N+]([O-])c1ccc(O)cc1`, for which the log10 BCF was determined as 0.71. `Cc1ccc(N)cc1N` yielded a log10 BCF of 1.7. `N#CSCSc1nc2ccccc2s1`: the log10 BCF worked out at 2.32 and the log10 biotransformation half-life (days) was -1.01. Take `O=C(Nc1ccc2c(O)cc(S(=O)(=O)O)cc2c1)Nc1ccc2c(O)cc(S(=O)(=O)O)cc2c1`: the log10 BCF is 0.26. Compound `Clc1ccc(-c2ccc(Cl)c(Cl)c2)c(Cl)c1` yielded a log10 biotransformation half-life (days) of 2.07. Turning to `C[Si]1(C)O[Si](C)(C)O[Si](C)(C)O[Si](C)(C)O[Si](C)(C)O[Si](C)(C)O1`, the log10 biotransformation half-life (days) turned out to be 2.34.

Compound `O=[N+]([O-])c1c(Cl)cc(Cl)cc1Cl` yielded a log10 BCF of 2.47 and a log10 biotransformation half-life (days) of 0.71.
